# Laboratory results from patent US9290467B2, “Cyclic amides” (Hoffmann-La Roche Inc., priority 2012, dated 2016).
# Like-named read-outs stand apart in the source and are kept apart here.
# Columns and labels:
# [1] = rcm bond, 16-membered ring, DCM, 50.0 °C
# Cathepsin L = Cathepsin L (Homo sapiens (Human), UniProt P07711); assay: Cathepsin enzyme inhibition assay (fluorogenic peptide substrate Z-Val-Val-Arg-AMC); format: biochemical; settings: enzyme 1 nM, substrate 20 μM, pH 6.5
# Experimental: Enzyme activity is measured by observing the increase in fluorescence intensity caused by cleavage of a peptide substrate containing a fluorophore whose emission is quenched in the intact peptide.
# Assay buffer: 100 mM potassium phosphate pH 6.5, EDTA-Na 5 mM, Triton X-100 0.001%, DDT 5 mM.
# Enzymes (all at 1 nM): human and mouse Cathepsin S, Cat K, Cat B, Cat L
# Substrate (20 μM): Z-Val-Val-Arg-AMC, except for Cat K which uses Z-Leu-Arg-AMC (both from Bachem).
# AMC=7-Amino-4-Methyl-Coumarin.
# Excitation 360 nm, Emission 465 nm.
# Enzyme is added to the substance dilutions in 96-well microtitre plates and the reaction is started with substrate. […] IC50 are calculated by standard methods. The results are expressed in μM in the following table.
# [2] = from C=CCOc1ccc(C[C@H](NC(=O)c2ccccc2OCC=C)C(=O)NC2(C#N)CC2)cc1; rcm bond; 16-membered ring; Grubbs II (0.3 eq); DCM; 2.88 mM; 50.0 °C
# Cathepsin L, sequence (P07711 114-333): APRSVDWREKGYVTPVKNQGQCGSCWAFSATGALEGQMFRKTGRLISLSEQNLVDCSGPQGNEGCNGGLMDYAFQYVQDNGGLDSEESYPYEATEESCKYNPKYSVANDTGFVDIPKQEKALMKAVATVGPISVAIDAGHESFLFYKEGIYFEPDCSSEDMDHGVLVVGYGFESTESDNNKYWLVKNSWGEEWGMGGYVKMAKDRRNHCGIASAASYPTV
SMILES,IC50 (Cathepsin L),also measured
COC(=O)[C@@H]1Cc2ccc(c(Cl)c2)OC/C=C/CCN2CCCC2C(=O)N1 (stereo partly shown),,"ring closure, isolated yield ([1]; from C=CCCN1CCC[C@H]1C(=O)N[C@@H](Cc1ccc(OCC=C)c(Cl)c1)C(=O)OC, Grubbs II (0.3 eq)/pTsOH (2 eq, in AcOH), 2.64 mM): 87%"
COC(=O)[C@@H]1Cc2ccc(c(Cl)c2)OC/C=C/COc2ccccc2C(=O)N1,,"ring closure, isolated yield ([1]; from C=CCOc1ccc(C[C@H](NC(=O)c2ccccc2OCC=C)C(=O)OC)cc1Cl, Grubbs II (0.3 eq), 2.76 mM): 47%"
N#CC1(NC(=O)[C@@H]2Cc3ccc(c(Cl)c3)OCC=CCOc3ccc(Br)cc3C(=O)N2)CC1,,"ring closure, isolated yield ([1]; from C=CCOc1ccc(C[C@H](NC(=O)c2cc(Br)ccc2OCC=C)C(=O)NC2(C#N)CC2)cc1Cl, Grubbs II (0.3 eq), 2.15 mM): 53%"
"N#CC1(NC(=O)[C@@H]2Cc3ccc(cc3)OC/C=C/COc3ccccc3C(=O)N2)CC1 [Example 1, (E)-(S)-5-Oxo-12,17-dioxa-4-aza-tricyclo[16.2.2.0*6,11*]docosa-1(21),6(11),7,9,14,18(22),19-heptaene-3-carboxylic acid (1-cyano-cyclopropyl)-amide]",88.5 nM,"ring closure, yield after HPLC [2]: 20%"
"COc1ccc2c(c1)CC/C=C/COc1ccc(cc1Cl)C[C@@H](C(=O)NC1(C#N)CC1)NC2=O [Example 18, (E)-(S)-19-Chloro-9-methoxy-5-oxo-17-oxa-4-aza-tricyclo[16.2.2.0*6,11*]docosa-1(21),6,8,10,14,18(22),19-heptaene-3-carboxylic acid (1-cyano-cyclopropyl)-amide]",54.7 nM,"ring closure, isolated yield ([1]; Grubbs II): 48%"
"Cc1ccc2c(n1)SC/C=C/COc1ccc(cc1Cl)C[C@@H](C(=O)NC1(C#N)CC1)NC2=O [Example 19, (E)-(S)-19-Chloro-9-methyl-5-oxo-17-oxa-12-thia-4,10-diaza-tricyclo[16.2.2.0*6,11*]docosa-1(21),6,8,10,14,18(22),19-heptaene-3-carboxylic acid (1-cyano-cyclopropyl)-amide]",26 nM,"ring closure, isolated yield ([1]; from C=CCOc1ccc(C[C@H](NC(=O)c2ccc(C)nc2SCC=C)C(=O)NC2(C#N)CC2)cc1Cl, Grubbs II (0.3 eq)/Ti(OiPr)4 (0.6 eq), 1.15 mM): 6%"
"N#CC1(NC(=O)[C@@H]2Cc3ccc(c(Cl)c3)OC/C=C/COc3c(Cl)cc(F)cc3C(=O)N2)CC1 [Example 48, (E)-(S)-10,19-Dichloro-8-fluoro-5-oxo-12,17-dioxa-4-aza-tricyclo[16.2.2.0*6,11*]docosa-1(21),6,8,10,14,18(22),19-heptaene-3-carboxylic acid (1-cyano-cyclopropyl)-amide]",139 nM,
"N#Cc1ccc2c(c1)C(=O)N[C@H](C(=O)NC1(C#N)CC1)Cc1ccc(c(Cl)c1)OCCCCO2 [Example 49, (S)-19-Chloro-8-cyano-5-oxo-12,17-dioxa-4-aza-tricyclo[16.2.2.0*6,11*]docosa-1(21),6,8,10,18(22),19-hexaene-3-carboxylic acid (1-cyano-cyclopropyl)-amide]",18.3 nM,
"N#CC1(NC(=O)[C@@H]2Cc3ccc(c(Cl)c3)OCCCCOc3ccc(F)c(F)c3C(=O)N2)CC1 [Example 50, (S)-19-Chloro-7,8-difluoro-5-oxo-12,17-dioxa-4-aza-tricyclo[16.2.2.0*6,11*]docosa-1(21),6,8,10,18(22),19-hexaene-3-carboxylic acid (1-cyano-cyclopropyl)-amide]",13.5 nM,
"CSc1ccc2c(c1)C(=O)N[C@H](C(=O)NC1(C#N)CC1)Cc1ccc(c(Cl)c1)OCCCCO2 [Example 51, (S)-19-Chloro-8-methylsulfanyl-5-oxo-12,17-dioxa-4-aza-tricyclo[16.2.2.0*6,11*]docosa-1(21),6,8,10,18(22),19-hexaene-3-carboxylic acid (1-cyano-cyclopropyl)-amide]",1.6 nM,
